From patent US20220409733A1, “COMPOSITIONS AND METHODS FOR TREATING CANCER” (priority 2019, published 2022)
Read-outs that look alike come from different tables or passages of the source.

Assays:
[1] = biological target: APP (Homo sapiens, UniProt P05067); details: in vivo and in vitro; cited from earlier work
[2] = tested on: A2780 cells; assay: CCK-8 assay of cDDP cytotoxicity in parental A2780 cells; format: cell-based; details: parental A2780 cell line, 1 h cDDP exposure
Protocol: (§1) FIG. 1B: CCK-8 assay of A2780, A2780-CP and A2780-CP cells pre-incubated for 24 h with APP antisense oligonucleotides (A2780ONS) during a 1 h exposure to increasing concentrations of cDDP.

[3] = tested on: A2780-CP cells; assay: CCK-8 assay of cDDP cytotoxicity in Pt resistant A2780-CP cells; format: cell-based; details: 1 h cDDP exposure
Protocol: as §1

Chain of APP (P05067 18-770): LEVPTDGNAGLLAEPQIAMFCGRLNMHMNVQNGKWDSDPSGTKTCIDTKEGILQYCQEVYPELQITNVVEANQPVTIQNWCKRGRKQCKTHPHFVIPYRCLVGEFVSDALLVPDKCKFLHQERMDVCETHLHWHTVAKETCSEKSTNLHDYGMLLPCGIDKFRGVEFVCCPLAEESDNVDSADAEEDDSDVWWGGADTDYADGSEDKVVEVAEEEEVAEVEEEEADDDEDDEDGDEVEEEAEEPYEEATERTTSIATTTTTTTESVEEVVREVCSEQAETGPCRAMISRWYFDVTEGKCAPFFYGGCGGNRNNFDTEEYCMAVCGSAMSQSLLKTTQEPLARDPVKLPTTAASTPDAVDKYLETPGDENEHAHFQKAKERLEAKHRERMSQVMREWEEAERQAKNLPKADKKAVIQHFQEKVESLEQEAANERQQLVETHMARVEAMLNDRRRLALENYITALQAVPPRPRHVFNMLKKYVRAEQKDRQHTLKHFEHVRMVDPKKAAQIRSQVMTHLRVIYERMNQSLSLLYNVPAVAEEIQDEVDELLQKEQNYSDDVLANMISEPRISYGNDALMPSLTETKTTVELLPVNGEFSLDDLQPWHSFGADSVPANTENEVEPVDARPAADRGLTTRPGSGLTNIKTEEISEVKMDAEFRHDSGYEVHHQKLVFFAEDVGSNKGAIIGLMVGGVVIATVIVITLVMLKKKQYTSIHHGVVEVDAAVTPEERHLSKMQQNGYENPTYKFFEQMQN

Molecule	Binding to APP [1]	IC50 [2]	IC50 ([3]; A2780-CP cells pre-treated overnight with 25 μM APP ONS, read-out: IC50 of cDDP following APP downregulation)	IC50 ([3]; A2780-CP cells, no APP downregulation, read-out: IC50 of cDDP)
-cdkc pagtyvsehc tntslrvcss cpvgtftr- (SEQ ID NO:1) [DR6 peptide]	high affinity			
[NH2][Pt]([NH2])([Cl])[Cl] [cDDP, Cisplatin]		10.2 ± 0.32 µM	12.1 ± 0.3 µM	63.2 ± 1.9 µM
